Columns and labels:
Type in all cases: in vivo
summer barley (Pasadena) = assay: Glasshouse trial, lodging of summer barley after leaf spray; settings: for % lodging 30 DAA Summary barley: leaf spray at growth stage 30, 30 days after application
Description: (§1) A glasshouse trial was setup to assess growth effects of cis-jasmone on summer barley (Pasadena) and winter rye (Reknit).
(§2) Each treatment was applied as a spray to the leaves of the plant at plant growth stage 30 (start of stem elongation). Assessments of lodging were made 30 days after application; the results are expressed as percentage lodging in Table 2.

winter rye (Reknit) = assay: Glasshouse trial, lodging of winter rye after leaf spray; settings: for % lodging 30 DAA Winter rye: leaf spray at growth stage 30, 30 days after application
Description: as §1, §2

Poa annua [1] = assay: Turf colour assessment, golf course fairway trial
Description: (§3) A trial was setup to assess crop (turf) enhancement effects of cis-jasmone on Poa annua in a golf course […]. Each treatment was applied as a spray to the turfgrass. Assessments of turf colour and quality were made at several intervals after application; the results are expressed on a scale of 1 (poor) to 10 (good).

Poa annua [2] = assay: Turf quality assessment, golf course fairway trial
Description: as §3

creeping bentgrass = assay: Turf colour assessment, golf course green trial; settings: for Plant Colour 14DAA (2) / Plant Colour 14 DAA (3) / Plant Colour 7AA (2): scale 1 (poor) to 10 (good), 3 apps - 4 week interval; for Plant Colour 14DAA (2): 14 days after application 2; for Plant Colour 14 DAA (3): 14 days after application 3; for Plant Colour 7AA (2): after application 2
Description: A trial was setup to assess crop (turf) enhancement effects of cis-jasmone on a creeping bentgrass golf course green. Each treatment was applied as a spray to the turfgrass. Assessments of turf colour and quality were made at several intervals after application; the results are expressed on a scale of 1 (poor) to 10 (good) in Table 5.

hybrid bermudagrass = assay: Turf growth (clipping weights), golf course fairway trial; settings: for Clipping wt (g) 32 DAA (1): 3 apps - 4 week interval, 32 days after application 1
Description: A trial was setup to assess crop enhancement effects of cis-jasmone on a hybrid bermudagrass golf course […]. Each treatment was applied as a spray to the turfgrass. Assessments of turf growth (clipping weights in grams) were made at several intervals after application.

[3] = tested on: summer oil seed rape variety Jumbo; assay: Glasshouse trial, leaf chlorophyll content (Dualex), variety Jumbo
Description: (§4) A glasshouse trial was setup to assess growth effects of cis-jasmone on summer oil seed rape varieties Jumbo and Senator. Each treatment was applied as a spray to the leaves of the plant at plant growth stage 13 (3 leaves). Three replicates of 2 plants were sowed in pots in the greenhouse. Assessments of chlorophyll content of the leaves were made using the Dualex technique 25 days after application; the results are expressed as Dualex units of Chlorophyll in Table 8.

[4] = tested on: summer oil seed rape variety Senator; assay: Glasshouse trial, leaf chlorophyll content (Dualex), variety Senator
Description: as §4

[5] = during the entire study, versus untreated check
[6] = scale 1 (poor) to 10 (good), 50 g ai/ha, 4 applications on a 4 week schedule, 9-Jul
[7] = scale 1 (poor) to 10 (good), 50 g ai/ha, 4 applications on a 4 week schedule, 16-Jul
[8] = scale 1 (poor) to 10 (good), 50 g ai/ha, 4 applications on a 4 week schedule, 17-Jun

Compound: CC/C=C\CC1=C(C)CCC1=O [Cis-jasmone (CJN), cis-jasmone]
- % lodging 30 DAA Summary barley (summer barley (Pasadena); 150 g AI/ha): 70.0%
- % lodging 30 DAA Summary barley (summer barley (Pasadena); 300 g AI/ha): 60.0%
- initial growth (in words) (summer barley (Pasadena); summer barley): faster initial growth
- effect on lodging (in words) (summer barley (Pasadena); summer barley, versus untreated check): significantly increases lodging
- % lodging 30 DAA Winter rye (winter rye (Reknit); 150 g AI/ha): 30.0%
- % lodging 30 DAA Winter rye (winter rye (Reknit); 300 g AI/ha): 23.3%
- effect on lodging (in words) (winter rye (Reknit); winter rye, versus untreated check): significantly increases lodging
- effect on turf colour (in words) (Poa annua [1]; [5]): significantly increased turf colour
- Turf colour 4-June (Poa annua [1]; scale 1 (poor) to 10 (good), 50 g ai/ha, 4 applications on a 4 week schedule, 4-June): 7.80 b
- Turf colour 9-Jul (Poa annua [1]; [6]): 8.2 a
- Turf colour 10-June (Poa annua [1]; scale 1 (poor) to 10 (good), 50 g ai/ha, 4 applications on a 4 week schedule, 10-June): 8.16 a
- Turf colour 14-May (Poa annua [1]; scale 1 (poor) to 10 (good), 50 g ai/ha, 4 applications on a 4 week schedule, 14-May): 5.8 b
- Turf colour 16-Jul (Poa annua [1]; [7]): 7.96 a
- Turf colour 17-Jun (Poa annua [1]; [8]): 7.80 a
- Turf colour 21-May (Poa annua [1]; scale 1 (poor) to 10 (good), 50 g ai/ha, 4 applications on a 4 week schedule, 21-May): 8.08 b
- Turf colour 28-May (Poa annua [1]; scale 1 (poor) to 10 (good), 50 g ai/ha, 4 applications on a 4 week schedule, 28-May): 6.00 b
- effect on turf quality (in words) (Poa annua [2]; [5]): significantly increased turf quality
- Turf quality 3-Jul (Poa annua [2]; scale 1 (poor) to 10 (good), 50 g ai/ha, 4 applications on a 4 week schedule, 3-Jul): 8.46 a
- Turf quality 9-Jul (Poa annua [2]; [6]): 8.42 a
- Turf quality 10-Jun (Poa annua [2]; scale 1 (poor) to 10 (good), 50 g ai/ha, 4 applications on a 4 week schedule, 10-Jun): 8.2 a
- Turf quality 16-Jul (Poa annua [2]; [7]): 8.1 a
- Turf quality 17-Jun (Poa annua [2]; [8]): 8.8 a
- Turf quality 23-Jul (Poa annua [2]; scale 1 (poor) to 10 (good), 50 g ai/ha, 4 applications on a 4 week schedule, 23-Jul): 8.18 a
- Turf quality 24-Jun (Poa annua [2]; scale 1 (poor) to 10 (good), 50 g ai/ha, 4 applications on a 4 week schedule, 24-Jun): 8.74 a
- Turf quality 31-Jul (Poa annua [2]; scale 1 (poor) to 10 (good), 50 g ai/ha, 4 applications on a 4 week schedule, 31-Jul): 7.96 a
- effect on turf colour (in words) (creeping bentgrass; [5]): significantly increased turf colour
- Plant Colour 14DAA (2) (creeping bentgrass; 50 g ai/ha): 5.40 e
- Plant Colour 14 DAA (3) (creeping bentgrass; 50 g ai/ha): 6.00 c
- Plant Colour 7AA (2) (creeping bentgrass; 50 g ai/ha): 5.6
- Plant Colour 14DAA (2) (creeping bentgrass; 100 g ai/ha): 6.00 c
- Plant Colour 14 DAA (3) (creeping bentgrass; 100 g ai/ha): 6.00 c
- Plant Colour 7AA (2) (creeping bentgrass; 100 g ai/ha): 5.7
- Plant Colour 14DAA (2) (creeping bentgrass; 150 g ai/ha): 6.00 c
- Plant Colour 14 DAA (3) (creeping bentgrass; 150 g ai/ha): 6.00 c
- Plant Colour 7AA (2) (creeping bentgrass; 150 g ai/ha): 6.08
- Clipping wt (g) 32 DAA (1) (hybrid bermudagrass; 50 g ai/ha): 37 ab g
- Clipping wt (g) 32 DAA (1) (hybrid bermudagrass; 100 g ai/ha): 45 a g
- Clipping wt (g) 32 DAA (1) (hybrid bermudagrass; 150 g ai/ha): 25 c g
- effect on clipping weights (in words) (hybrid bermudagrass; early in the trial, versus untreated check): significantly increased clipping weights
- effect on chlorophyll content (in words) [3]: increased chlorophyll content
- effect on chlorophyll content (in words) [4]: not

Reference: patent US20140187426A1, “CROP ENHANCEMENT” (SYNGENTA PARTICIPATIONS AG, priority 2011, published 2014)
